The text below walks through data of ChEMBL document CHEMBL1201862, “PubChem BioAssay data set” (2004).

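Step 1: Grow cells in 96-well plates. Step 2: Expose to compound for 48 hours at 5 concentrations. Step 3: Interpolate endpoints linearly; if unreached, use highest concentration. GI50 = concentration required for 50% inhibition of growth.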 The source made the active and inactive calls. Cut-off read from the data, not from the text of the source: active = GI50 up to about 1.1 µM and inactive = higher.

Test systems include MDA-MB-231; OVCAR-5; NCI-H522; HOP-62; CCRF-CEM; A498; SF-268; HL-60; SK-OV-3; MOLT-4; NCI/ADR-RES; SNB-19; MDA-MB-435; NCI-H460; SK-MEL-5; SNB-75; UO-31; PC-3; RPMI-8226; SR.
What all share (assay): growth of human tumour cells (NCI), 48 h

`Brc1ccc(-c2nc(-c3ccc(Br)cc3)n(-c3ccccc3)n2)cc1`: the GI50 in the experiment on MDA-MB-231 is > 100 µM (inactive); in the experiment on OVCAR-5 it was > 100 µM (inactive); in the experiment on NCI-H522 it was 39 µM (inactive); with HOP-62, > 100 µM (inactive); with CCRF-CEM it was 20.6 µM (inactive); with A498, > 100 µM (inactive). For the same compound, the GI50 in the experiment with SF-268 is > 100 µM (inactive); in the experiment with HL-60 it was 34.8 µM (inactive); with SK-OV-3, > 100 µM (inactive); in the experiment on MOLT-4 it was 53.7 µM (inactive); in the experiment with NCI/ADR-RES, > 100 µM (inactive); with SNB-19, > 100 µM (inactive). In addition, the GI50 is 46.7 µM (inactive) with MDA-MB-435; > 100 µM (inactive) with NCI-H460; > 100 µM (inactive) with SK-MEL-5; 54.3 µM (inactive) in the experiment on SNB-75; > 100 µM (inactive) in the experiment with UO-31; > 100 µM (inactive) in the experiment with PC-3.
On to `CCCc1c(Cl)nc(Cl)nc1Cl`, for which the GI50 with MDA-MB-231 was 0.425 µM (active); in the experiment on OVCAR-5, 1.54 µM (inactive); in the experiment on HOP-62 it was 2.43 µM (inactive); in the experiment on CCRF-CEM it was 0.0265 µM (active); with A498, 19.5 µM (inactive); in the experiment with SF-268, 1.29 µM (inactive). Besides, the GI50 is 0.48 µM (active) in the experiment on HL-60; > 100 µM (inactive) in the experiment on SK-OV-3; 0.432 µM (active) in the experiment with RPMI-8226; 0.0429 µM (active) in the experiment on MOLT-4; 0.845 µM (active) with NCI/ADR-RES; 4.71 µM (inactive) in the experiment on SNB-19. In addition, the GI50 is 0.471 µM (active) with MDA-MB-435; 1.2 µM (inactive) with NCI-H460; 0.0594 µM (active) in the experiment on SK-MEL-5; 9.18 µM (inactive) in the experiment on SNB-75; 25.4 µM (inactive) in the experiment with UO-31; 2.75 µM (inactive) with PC-3.
As for `COc1ccc(OC)c(C#Cc2ccc(OC)c(C(=O)NCCc3ccc(F)cc3)c2)c1`, the GI50 in the experiment with OVCAR-5 was > 100 µM (inactive); in the experiment with NCI-H522, 2.25 µM (inactive); with A498, 9.84 µM (inactive); with SF-268, > 100 µM (inactive); with HL-60 it was 5.13 µM (inactive); in the experiment with SR it was 0.783 µM (active). The GI50 in the experiment on RPMI-8226 was 3.32 µM (inactive); with MOLT-4, 2.19 µM (inactive); with NCI/ADR-RES, 7.8 µM (inactive); with SNB-19, 61.2 µM (inactive); in the experiment with MDA-MB-435, 1.23 µM (inactive); in the experiment with NCI-H460, 5.09 µM (inactive). Besides, the values for the GI50 in the experiment with SK-MEL-5, with UO-31 and in the experiment with PC-3 were 4.42 µM (inactive), 28.3 µM (inactive) and 5.14 µM (inactive), respectively.
As to `CCCCCCCCCCCCC(=O)OC(c1cnco1)c1nc(C(O)CC(O)C(O)C(C)O)co1` (stereo unspecified), the GI50 in the experiment with MDA-MB-231 is 1.89 µM (inactive); in the experiment with OVCAR-5 it was 11.6 µM (inactive); with NCI-H522, 0.787 µM (active); in the experiment on HOP-62 it was 2.65 µM (inactive); in the experiment on CCRF-CEM, 0.284 µM (active); in the experiment on A498, 20.9 µM (inactive). In addition, the GI50 is 0.333 µM (active) in the experiment with SF-268; 0.849 µM (active) in the experiment on HL-60; < 0.0407 µM (active) with SR; 3.94 µM (inactive) in the experiment on SK-OV-3; 0.273 µM (active) in the experiment with RPMI-8226; 0.144 µM (active) in the experiment with MOLT-4. Besides, the GI50 was > 10 µM (inactive) in the experiment on NCI/ADR-RES; 11.3 µM (inactive) with SNB-19; < 0.039 µM (active) in the experiment on NCI-H460; 0.719 µM (active) in the experiment on SK-MEL-5; 0.581 µM (active) in the experiment on SNB-75; 8.97 µM (inactive) with UO-31. For the same compound, the GI50 in the experiment with PC-3 was 2.22 µM (inactive).
Regarding `Cc1[nH]c2ccccc2c1C1=CC(=O)N(c2ccccc2)C1=O`, the GI50 was 28.2 µM (inactive) in the experiment on MDA-MB-231; 23.1 µM (inactive) in the experiment with OVCAR-5; 7.98 µM (inactive) in the experiment with HOP-62; 8.45 µM (inactive) in the experiment with CCRF-CEM; 9.71 µM (inactive) in the experiment with A498; 15.8 µM (inactive) in the experiment with SF-268. In addition, the GI50 with HL-60 is 10.7 µM (inactive); in the experiment with SK-OV-3 it was 34.3 µM (inactive); with RPMI-8226 it was 11.3 µM (inactive); with MOLT-4, 36.2 µM (inactive); in the experiment on NCI/ADR-RES, 20.2 µM (inactive); in the experiment on SNB-19, 22.1 µM (inactive). The GI50 is 15.6 µM (inactive) in the experiment with MDA-MB-435; 14.6 µM (inactive) with NCI-H460; 8 µM (inactive) with SK-MEL-5; 19 µM (inactive) in the experiment on UO-31; 11.9 µM (inactive) in the experiment with PC-3.
For `Cc1ccc(/N=N/c2c(O)ccc3ccccc23)c(C)c1`, the GI50 in the experiment on MDA-MB-231, with OVCAR-5, with HOP-62, with A498, in the experiment with SF-268 and in the experiment with SK-OV-3 was > 100 µM (inactive) each time. In addition, the GI50 with RPMI-8226, with MOLT-4, with NCI/ADR-RES, with SNB-19, in the experiment on MDA-MB-435 and with SK-MEL-5 was > 100 µM (inactive) throughout. Besides, the GI50 in the experiment on SNB-75, in the experiment on UO-31 and in the experiment with PC-3 was > 100 µM (inactive) each time.
For the compound `CCN(CC)CCNC(=O)c1ccc(C)c(OCc2ccccc2)c1[N+](=O)[O-]`, the GI50 in the experiment with MDA-MB-231 was 35.6 µM (inactive); in the experiment with OVCAR-5 it was 35.9 µM (inactive); with NCI-H522 it was 27 µM (inactive); with HOP-62, 28.6 µM (inactive); in the experiment on CCRF-CEM, 31.2 µM (inactive); in the experiment on A498, 50 µM (inactive). Further, the GI50 is 63.2 µM (inactive) in the experiment on SF-268; 19.5 µM (inactive) with HL-60; 27.7 µM (inactive) with SR; 34.2 µM (inactive) in the experiment on SK-OV-3; 25.8 µM (inactive) in the experiment with RPMI-8226; 28.7 µM (inactive) with MOLT-4. In addition, the GI50 with NCI/ADR-RES is 33.4 µM (inactive); in the experiment on SNB-19, > 80.7 µM (inactive); with NCI-H460, 36.6 µM (inactive); with SK-MEL-5, 16.3 µM (inactive); with SNB-75, 18 µM (inactive); with UO-31, 21 µM (inactive). Further, the GI50 with PC-3 is 45.3 µM (inactive).
On to `CN1CCN(/C(N)=C(\C#N)C(=O)Nc2ccccc2)CC1`, for which the GI50 in the experiment on OVCAR-5, in the experiment with HOP-62, in the experiment with CCRF-CEM, in the experiment with A498, in the experiment with SR and in the experiment with SK-OV-3 was > 100 µM (inactive) each time. The GI50 in the experiment on RPMI-8226, in the experiment on MOLT-4, in the experiment with NCI/ADR-RES, in the experiment on SNB-19, in the experiment with MDA-MB-435 and with NCI-H460 was > 100 µM (inactive) throughout. Further, the GI50 in the experiment on SK-MEL-5, with SNB-75, in the experiment on UO-31 and in the experiment with PC-3 was > 100 µM (inactive) each time.
On to `Cc1ccc(NC(=O)c2cc3ccccc3c(/N=N\c3ccccc3O)c2O)c(C)c1`, for which the GI50 in the experiment on MDA-MB-231 is 2 µM (inactive); with OVCAR-5, 3.1 µM (inactive); in the experiment on NCI-H522, 1.01 µM (active); with HOP-62, 1.03 µM (active); with CCRF-CEM, 0.818 µM (active); in the experiment on SF-268 it was 0.687 µM (active). For the same compound, the GI50 with HL-60 is 1.14 µM (inactive); in the experiment on SR it was 0.373 µM (active); in the experiment on SK-OV-3, 1.86 µM (inactive); with RPMI-8226, 1.78 µM (inactive); with MOLT-4 it was 1.25 µM (inactive); in the experiment with NCI/ADR-RES it was 1.54 µM (inactive). Besides, the GI50 with SNB-19 was 1.2 µM (inactive); in the experiment with NCI-H460, 0.44 µM (active); with SK-MEL-5, 1.03 µM (active); in the experiment on SNB-75 it was 0.053 µM (active); in the experiment with PC-3, 1.63 µM (inactive).
Turning to `COc1c(OC)c(OC)c(C(=O)/C=C/c2ccccc2)c(OC)c1OC`, the GI50 in the experiment on MDA-MB-231 is 14.5 µM (inactive); in the experiment on OVCAR-5, 16.5 µM (inactive); in the experiment with NCI-H522, 3.12 µM (inactive); with CCRF-CEM, 1.96 µM (inactive); in the experiment with A498, 4.28 µM (inactive); in the experiment on SF-268, 3.69 µM (inactive). The GI50 with HL-60 is 7.11 µM (inactive); in the experiment on SK-OV-3, 12.3 µM (inactive); in the experiment with RPMI-8226 it was 3.6 µM (inactive); in the experiment with MOLT-4, 8.83 µM (inactive); in the experiment with NCI/ADR-RES it was 11.5 µM (inactive); in the experiment with SNB-19 it was 12.4 µM (inactive). For the same compound, the GI50 in the experiment on MDA-MB-435 is 5.06 µM (inactive); in the experiment with NCI-H460 it was 6.46 µM (inactive); in the experiment with SK-MEL-5 it was 13.5 µM (inactive); in the experiment on SNB-75, 8.91 µM (inactive); in the experiment with UO-31, 10.5 µM (inactive); in the experiment on PC-3, 8.67 µM (inactive).
For `COc1cc2c3c(n(C)c(=O)c2cc1OC)-c1cc2c(cc1/C3=C\CCCCCBr)OCO2`, the GI50 is 40.3 µM (inactive) in the experiment with MDA-MB-231; 67.9 µM (inactive) in the experiment on OVCAR-5; 3.73 µM (inactive) in the experiment with NCI-H522; 2.38 µM (inactive) with CCRF-CEM; 14.5 µM (inactive) in the experiment on A498; 4.31 µM (inactive) with SF-268. Further, the GI50 was 4.02 µM (inactive) in the experiment on HL-60; 0.43 µM (active) in the experiment with SR; 7.91 µM (inactive) in the experiment on SK-OV-3; 5.41 µM (inactive) with RPMI-8226; 1.45 µM (inactive) with MOLT-4; 32.4 µM (inactive) in the experiment with NCI/ADR-RES. Moreover, the GI50 with SNB-19 was 6.5 µM (inactive); in the experiment on NCI-H460, 5.83 µM (inactive); in the experiment with SK-MEL-5, 4.07 µM (inactive); in the experiment with SNB-75 it was 12.1 µM (inactive); with UO-31, 4.66 µM (inactive); with PC-3, 28.8 µM (inactive).
As to `COc1cc(CNc2nc3c(N)cc(C(F)(F)F)cc3nc2-c2ccccc2)cc(OC)c1OC`, the GI50 in the experiment on OVCAR-5 was 37.4 µM (inactive); in the experiment with NCI-H522, 11.6 µM (inactive); in the experiment on HOP-62 it was 39.5 µM (inactive); in the experiment on CCRF-CEM, > 10 µM (inactive); with A498, 61.9 µM (inactive); with SF-268, 50.8 µM (inactive). Besides, the GI50 was > 10 µM (inactive) in the experiment with HL-60; > 10 µM (inactive) with SR; > 10 µM (inactive) in the experiment on SK-OV-3; 47.3 µM (inactive) with RPMI-8226; 8.83 µM (inactive) in the experiment on MOLT-4; > 10 µM (inactive) with SNB-19. Moreover, the GI50 in the experiment with NCI-H460 is 25.9 µM (inactive); with SK-MEL-5, 21.3 µM (inactive); in the experiment with SNB-75, 89.3 µM (inactive); in the experiment with UO-31, 16.8 µM (inactive).
